For 12 molecules, IC50 results are on record in patent US11311542B2, “Inhibitors of cyclin dependent kinase 7 (CDK7)” (Syros Pharmaceuticals, Inc., priority 2018, dated 2022).

For test [1], the target named is CDK12 (aa686-1082)/Cyclin K complex (Homo sapiens, UniProt Q9NYV4). Description: CDK12 kinase inhibition assay (Caliper/LabChip EZ Reader).
Method: (§2) Compounds described herein were assayed for inhibition of CDK7, CDK9, CDK12, and CDK2 activity at Biortus Biosciences (Jiangyin, Jiangsu Province, P.R. of China) using kinase assays for each CDK developed with a Caliper/LabChip EZ Reader (Perkin Elmer, Waltham, Mass.).
(§3) Furthermore, the CDK9 inhibition assay used CDK9/Cyclin T1 complex (8 nM) and “5-FAM-CDK9tide” peptide substrate (2 μM, synthesized fluorophore-labeled peptide with the following sequence: 5-FAM-GSRTPMY-NH2 (SEQ ID NO:2) where 5-FAM is defined above and NH2 signifies a C-terminal amide) with 10 mM MgCl2 in the buffer composition listed above. The CDK12 inhibition assay used CDK12 (aa686-1082)/Cyclin K complex (50 nM) and “5-FAM-CDK9tide” (2 μM) as defined above, with 2 mM MgCl2 in the buffer composition above. Additionally, the CDK2 inhibition assay used CDK2/Cyclin E1 complex (0.5 nM) and “5-FAM-CDK7tide” (2 μM; defined above) with 2 mM MgCl2 in the buffer composition above.
(§4) The incubation period at 27° C. for each CDK inhibition assay was chosen such that the fraction of phosphorylated peptide product produced in each assay, relative to the total peptide concentration, was approximately 20% (±5%) for the uninhibited kinase (35 min. for CDK7, 35 min. for CDK2, 3 hr. for CDK12, 15 min. for CDK9).
The test system of a further test is COV504 cells. Description: Inhibition of cell proliferation (CyQUANT Direct), COV504. Type of test: cell-based, human. To be noted: COV504, 72-hour. As for the experimental part: (§1) HCC70 and MB453 cells are cell lines derived from human triple negative breast cancer COV318 and COV504 cells are cell lines derived from human ovarian cancer. Representative compounds of the invention were tested at different concentrations (from 4 μM to 126.4 pM; 0.5 log serial dilutions) for their ability to inhibit the proliferation of each of these cell lines. Known CDK inhibitors dinaciclib or N-((1S,3R)-3-((5-chloro-4-(1H-indol-3-yl) pyrimidin-2-yl)amino)cyclohexyl)-5-((E)-4-(dimethylamino)but-2-enamido)picolinamide and triptolide were used as positive controls. Cells were seeded at approximately 2,000 cells/well and grown in ATCC-formulated RPMI-1640 Medium (ATCC 30-2001)+10% FBS. The cells were cultured at 37° C. in a humidified chamber in the presence of 5% CO2. Proliferation assays were conducted over a 72-hour time period. CyQUANT® Direct Cell Proliferation Assay (Life Technologies, Chicago, Ill. USA) was used to assess the anti-proliferative effects of the compounds following manufacturer's directions and utilizing the reagents supplied with the CyQUANT® Direct Cell kit.

The target in the next test is CDK9/Cyclin T1 complex (Homo sapiens, UniProt P50750). Description: CDK9 kinase inhibition assay (Caliper/LabChip EZ Reader).
The next test concerns HCC70 cells. Description: Inhibition of cell proliferation (CyQUANT Direct), HCC70. In kind it is cell-based, human. To be noted: HCC70, 72-hour. The protocol: as §1
The next test concerns COV318 cells. Description: Inhibition of cell proliferation (CyQUANT Direct), COV318. To be noted: COV318, 72-hour. Type of test: cell-based, human. As for the experimental part:
as §1

A further test has as its target CDK2/Cyclin E1 complex (Homo sapiens, UniProt P24941). Description: CDK2 kinase inhibition assay (Caliper/LabChip EZ Reader).
Test [2] deals with CDK7/Cyclin H/MAT1 complex (Homo sapiens, UniProt P50613). Description: CDK7 kinase inhibition assay (Caliper/LabChip EZ Reader).
Method: as §2, §3, §4
The next test has as its system MB453 cells. Description: Inhibition of cell proliferation (CyQUANT Direct), MB453. Type of test: cell-based, human. To be noted: MB453, 72-hour. As for the experimental part:
as §1

pIC50: −log10 of the molar value. Read-outs that look alike come from different tables or passages of the source.

Chain of CDK12 (aa686-1082)/Cyclin K complex (Q9NYV4 686-1082): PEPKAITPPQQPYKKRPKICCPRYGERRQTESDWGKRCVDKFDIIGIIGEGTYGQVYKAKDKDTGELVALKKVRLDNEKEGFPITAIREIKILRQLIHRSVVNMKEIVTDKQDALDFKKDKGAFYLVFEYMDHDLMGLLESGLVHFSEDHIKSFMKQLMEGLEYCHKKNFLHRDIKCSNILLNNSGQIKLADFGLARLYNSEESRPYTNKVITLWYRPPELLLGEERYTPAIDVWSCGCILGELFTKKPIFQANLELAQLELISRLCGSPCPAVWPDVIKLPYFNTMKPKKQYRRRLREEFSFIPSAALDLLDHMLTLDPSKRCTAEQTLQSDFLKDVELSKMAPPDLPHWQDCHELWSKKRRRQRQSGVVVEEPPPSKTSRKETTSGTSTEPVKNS
Chain of CDK12 (aa686-1082)/Cyclin K complex (O75909 whole entry partner, the tested form may be a part): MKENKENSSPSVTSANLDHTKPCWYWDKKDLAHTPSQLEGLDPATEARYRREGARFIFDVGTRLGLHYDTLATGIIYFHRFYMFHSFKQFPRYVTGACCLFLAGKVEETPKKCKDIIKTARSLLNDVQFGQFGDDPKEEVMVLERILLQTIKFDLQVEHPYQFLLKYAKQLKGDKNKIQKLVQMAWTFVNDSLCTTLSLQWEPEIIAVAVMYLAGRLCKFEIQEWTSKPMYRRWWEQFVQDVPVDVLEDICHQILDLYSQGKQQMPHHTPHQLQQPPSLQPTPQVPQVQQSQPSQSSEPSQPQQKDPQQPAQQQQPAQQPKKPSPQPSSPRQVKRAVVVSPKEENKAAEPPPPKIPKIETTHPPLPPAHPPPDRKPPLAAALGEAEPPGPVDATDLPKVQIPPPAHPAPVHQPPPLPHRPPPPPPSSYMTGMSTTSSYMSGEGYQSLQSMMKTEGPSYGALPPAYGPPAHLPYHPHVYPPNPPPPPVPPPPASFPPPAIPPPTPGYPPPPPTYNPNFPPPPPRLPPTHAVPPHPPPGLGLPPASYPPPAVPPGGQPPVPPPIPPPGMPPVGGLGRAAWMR
Chain of CDK9/Cyclin T1 complex (P50750 whole entry): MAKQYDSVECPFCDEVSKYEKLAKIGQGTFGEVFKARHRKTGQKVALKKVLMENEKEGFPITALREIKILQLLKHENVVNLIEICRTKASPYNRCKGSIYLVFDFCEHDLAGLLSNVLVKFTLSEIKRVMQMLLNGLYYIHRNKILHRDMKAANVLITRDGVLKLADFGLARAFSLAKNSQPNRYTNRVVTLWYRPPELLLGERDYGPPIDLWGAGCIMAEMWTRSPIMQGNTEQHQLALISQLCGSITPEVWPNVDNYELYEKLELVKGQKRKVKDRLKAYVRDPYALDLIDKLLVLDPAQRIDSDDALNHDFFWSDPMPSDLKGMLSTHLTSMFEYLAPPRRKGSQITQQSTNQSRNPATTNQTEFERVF
Chain of CDK9/Cyclin T1 complex (O60563 whole entry partner): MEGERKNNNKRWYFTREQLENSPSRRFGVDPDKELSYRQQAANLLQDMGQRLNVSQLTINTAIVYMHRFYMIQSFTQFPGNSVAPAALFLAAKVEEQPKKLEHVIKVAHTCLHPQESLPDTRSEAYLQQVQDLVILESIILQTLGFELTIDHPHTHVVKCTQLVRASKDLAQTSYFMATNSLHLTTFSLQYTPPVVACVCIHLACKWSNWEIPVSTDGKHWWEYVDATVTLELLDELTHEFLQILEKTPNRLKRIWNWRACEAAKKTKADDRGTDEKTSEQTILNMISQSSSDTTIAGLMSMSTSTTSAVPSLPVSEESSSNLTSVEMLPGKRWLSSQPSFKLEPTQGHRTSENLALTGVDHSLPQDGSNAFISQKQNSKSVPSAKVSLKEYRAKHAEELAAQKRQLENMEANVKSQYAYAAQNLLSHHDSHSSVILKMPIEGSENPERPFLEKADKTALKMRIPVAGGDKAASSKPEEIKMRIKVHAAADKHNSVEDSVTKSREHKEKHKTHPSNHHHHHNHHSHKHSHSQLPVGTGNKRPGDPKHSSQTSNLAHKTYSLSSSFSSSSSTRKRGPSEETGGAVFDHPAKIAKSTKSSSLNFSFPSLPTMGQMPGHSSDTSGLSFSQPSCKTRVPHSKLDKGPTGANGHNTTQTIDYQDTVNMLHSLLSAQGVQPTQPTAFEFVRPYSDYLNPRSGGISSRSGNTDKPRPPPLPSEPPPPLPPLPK
Chain of CDK7/Cyclin H/MAT1 complex (P50613 whole entry): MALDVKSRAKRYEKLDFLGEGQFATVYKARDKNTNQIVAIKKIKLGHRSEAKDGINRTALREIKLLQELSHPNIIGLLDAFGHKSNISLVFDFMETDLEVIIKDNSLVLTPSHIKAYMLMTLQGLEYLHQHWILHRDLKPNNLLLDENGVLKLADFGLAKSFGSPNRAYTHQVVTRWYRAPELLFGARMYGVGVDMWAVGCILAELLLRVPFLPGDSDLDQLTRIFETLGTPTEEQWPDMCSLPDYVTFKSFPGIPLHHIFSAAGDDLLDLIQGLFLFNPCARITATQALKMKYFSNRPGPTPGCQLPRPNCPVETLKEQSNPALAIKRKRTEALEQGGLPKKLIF
Chain of CDK7/Cyclin H/MAT1 complex (P51946 whole entry partner): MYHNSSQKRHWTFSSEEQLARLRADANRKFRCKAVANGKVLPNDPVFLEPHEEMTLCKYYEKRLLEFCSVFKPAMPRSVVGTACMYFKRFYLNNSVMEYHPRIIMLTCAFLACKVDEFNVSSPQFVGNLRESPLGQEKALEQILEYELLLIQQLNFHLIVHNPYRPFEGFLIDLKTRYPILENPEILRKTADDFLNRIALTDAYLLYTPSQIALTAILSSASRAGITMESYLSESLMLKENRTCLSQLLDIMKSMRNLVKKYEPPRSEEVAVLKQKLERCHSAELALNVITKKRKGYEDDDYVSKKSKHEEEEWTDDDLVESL
Chain of CDK7/Cyclin H/MAT1 complex (P51948 whole entry partner): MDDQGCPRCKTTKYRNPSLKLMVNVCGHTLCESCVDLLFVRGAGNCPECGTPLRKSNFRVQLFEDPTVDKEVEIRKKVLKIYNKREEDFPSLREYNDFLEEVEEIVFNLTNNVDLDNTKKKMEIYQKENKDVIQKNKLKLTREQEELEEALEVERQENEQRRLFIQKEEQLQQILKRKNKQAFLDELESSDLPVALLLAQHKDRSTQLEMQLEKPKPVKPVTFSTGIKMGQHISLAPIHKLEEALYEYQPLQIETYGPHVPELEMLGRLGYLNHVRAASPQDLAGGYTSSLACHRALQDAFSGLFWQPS
Method for CDK2/Cyclin E1 complex: as §2, §3, §4

For orientation: pIC50 means −log10 of the IC50, conventionally taken in molar units. For “3-methyl-4-(3-(2-(methylthio)-5-(trifluoromethyl)pyrimidin-4-yl)-1-(phenylsulfonyl)-1H-pyrrolo[2,3-b]pyridin-6-yl)isoxazole [Compound 147]”, the pIC50 in test [1] (read-out: CDK12 IC50, CDK12 (aa686-1082)/Cyclin K 50 nM, ATP 2 mM, 3 hr at 27° C.) is under 6.30; in the test on COV504 cells, over 7.00; at CDK9/Cyclin T1 complex (read-out: CDK9 IC50, CDK9/Cyclin T1 8 nM, ATP 2 mM, 15 min at 27° C.) it was under 6.30; with HCC70 cells, over 7.00; with COV318 cells, under 6.00; on CDK2/Cyclin E1 complex (read-out: CDK2 IC50, CDK2/Cyclin E1 0.5 nM, ATP 2 mM, 35 min at 27° C.), under 6.30. For the same molecule, the pIC50 is over 7.52 in test [2] (read-out: CDK7 IC50, CDK7/Cyclin H/MAT1 6 nM, ATP 2 mM, 35 min at 27° C.) and over 7.00 with MB453 cells.
For the molecule `Cc1nnc(-c2ccc3c(-c4nc(N[C@H]5CCCNC5)ncc4C(F)(F)F)c[nH]c3n2)s1` [Compound 155, 4-[6-(5-methyl-1,3,4-thiadiazol-2-yl)-1H-pyrrolo[2,3-b]pyridin-3-yl]-N-[(3S)-3-piperidyl]-5-(trifluoromethyl)pyrimidin-2-amine], the negative-log IC50 (pIC50) in test [1] is under 6.30; with COV504 cells (Homo sapiens), over 7.00; against CDK9/Cyclin T1 complex, under 6.30; in the test with HCC70 cells (Homo sapiens) it was over 7.00; in the test on COV318 cells (Homo sapiens), over 7.00; on CDK2/Cyclin E1 complex, under 6.30. In addition, the pIC50 in test [2] was over 7.52; with MB453 cells (Homo sapiens), over 7.00.
With `Cc1noc(C)c1-c1cc2[nH]cc(-c3nc(N[C@H]4CCCNC4)ncc3C(F)(F)F)c2cc1F` [Compound 134, 4-(6-(3,5-dimethylisoxazol-4-yl)-5-fluoro-1H-indol-3-yl)-N—((S)-piperidin-3-yl)-5-(trifluoromethyl)pyrimidin-2-amine], the pIC50 was under 6.30 in test [1]; over 7.00 in the test on COV504 cells (Homo sapiens); under 6.30 against CDK9/Cyclin T1 complex; over 7.00 in the test with HCC70 cells (Homo sapiens); over 7.00 in the test with COV318 cells (Homo sapiens); under 6.30 against CDK2/Cyclin E1 complex. For the same molecule, the negative logarithm of the IC50 (pIC50) in test [2] was over 7.52; in the test on MB453 cells (Homo sapiens) it was over 7.00.
On to `Cc1noc(C)c1-c1ccc2c(-c3nc(N[C@@H]4CC[C@@H](C)NC4)ncc3C(F)(F)F)c[nH]c2n1` [Compound 125, 4-[6-(3,5-dimethylisoxazol-4-yl)-1H-pyrrolo-[2,3-b]-pyridin-3-yl]-N-[(3R,6R)-6-methyl-3-piperidyl]-5-(trifluoromethyl)pyrimidin-2-amine], for which the pIC50 in test [1] is under 6.30; in the test with COV504 cells (Homo sapiens) it was over 7.00; at CDK9/Cyclin T1 complex, under 6.30; in the test on HCC70 cells (Homo sapiens), 6.30 to 7.00; with COV318 cells (Homo sapiens), 6.30 to 7.00; on CDK2/Cyclin E1 complex, under 6.30. Moreover, the pIC50 in test [2] was over 7.52; with MB453 cells (Homo sapiens) it was over 7.00.
For `Cc1noc(C)c1-c1ccc2c(-c3nc(N[C@H]4CCC(C)(C)NC4)ncc3C(F)(F)F)c[nH]c2n1` [Compound 116], the pIC50 is under 6.30 in test [1]; over 7.00 in the test with COV504 cells (Homo sapiens); under 6.30 on CDK9/Cyclin T1 complex; over 7.00 in the test on HCC70 cells (Homo sapiens); over 7.00 in the test on COV318 cells (Homo sapiens); under 6.30 at CDK2/Cyclin E1 complex. Also, the pIC50 in test [2] was over 7.52; in the test with MB453 cells (Homo sapiens), over 7.00.
Regarding `Cc1noc(-c2ccc3c(-c4nc(N[C@H]5CCCNC5)ncc4C(F)(F)F)c[nH]c3n2)n1` [Compound 136, 4-[6-(3-methyl-1,2,4-oxadiazol-5-yl)-1H-pyrrolo[2,3-b]pyridin-3-yl]-N-[(3S)-3-piperidyl]-5-(trifluoromethyl)pyrimidin-2-amine], the pIC50 in test [1] is under 6.30; with COV504 cells (Homo sapiens) it was over 7.00; against CDK9/Cyclin T1 complex, under 6.30; in the test with HCC70 cells (Homo sapiens) it was over 7.00; in the test on COV318 cells (Homo sapiens) it was under 6.00; against CDK2/Cyclin E1 complex, under 6.30. Also, the pIC50 is over 7.52 in test [2] and over 7.00 in the test on MB453 cells (Homo sapiens).
Turning to `FC(F)(F)c1cnc(N[C@H]2CCCNC2)nc1-c1c[nH]c2cc(-c3ncco3)ccc12` [Compound 110, (S)-4-(6-(oxazol-2-yl)-1H-indol-3-yl)-N-(piperidin-3-yl)-5-(trifluoromethyl)pyrimidin-2-amine], the negative-log IC50 (pIC50) in test [1] is under 6.30; in the test with COV504 cells (Homo sapiens), over 7.00; against CDK9/Cyclin T1 complex, under 6.30; with HCC70 cells (Homo sapiens), over 7.00; with COV318 cells (Homo sapiens), 6.30 to 7.00; against CDK2/Cyclin E1 complex, under 6.30. The results for the pIC50 (in test [2]; in the test on MB453 cells (Homo sapiens)) were over 7.52 and over 7.00, respectively.
`C[C@@H]1CC[C@@H](Nc2ncc(C(F)(F)F)c(-c3c[nH]c4nc(-c5nnnn5C)ccc34)n2)CN1` [Compound 164, N-[(3R, 6R)-6-methyl-3-piperidyl]-4-[6-(1-methyltetrazol-5-yl)-1H-pyrrolo[2,3-b]pyridin-3-yl]-5-(trifluoromethyl)pyrimidin-2-amine]: the pIC50 in test [1] was under 6.30; in the test with COV504 cells (Homo sapiens), over 7.00; on CDK9/Cyclin T1 complex, under 6.30; in the test on HCC70 cells (Homo sapiens), 6.30 to 7.00; in the test with COV318 cells (Homo sapiens), 6.00 to 6.30; against CDK2/Cyclin E1 complex, under 6.30. For the same molecule, the pIC50 is over 7.52 in test [2] and over 7.00 with MB453 cells (Homo sapiens).
Take `Cc1nc(-c2ccc3c(-c4nc(N[C@@H]5CC[C@@H](C)NC5)ncc4C(F)(F)F)c[nH]c3n2)no1` [Compound 163, 4-[6-(5-methyl-1,2,4-oxadiazol-3-yl)-1H-pyrrolo[2,3-b]pyridin-3-yl]-N-[(3R, 6R)-6-methyl-3-piperidyl]-5-(trifluoromethyl)pyrimidin-2-amine]: the pIC50 in test [1] was under 6.30; in the test with COV504 cells (Homo sapiens), over 7.00; against CDK9/Cyclin T1 complex, under 6.30; in the test with HCC70 cells (Homo sapiens), over 7.00; in the test on COV318 cells (Homo sapiens), under 6.00; on CDK2/Cyclin E1 complex, under 6.30. Moreover, the pIC50 in test [2] was over 7.52; in the test with MB453 cells (Homo sapiens), over 7.00.
Regarding `O[C@H]1CNC[C@@H](Nc2ncc(C(F)(F)F)c(-c3c[nH]c4cc(-c5nccs5)ccc34)n2)C1` [Compound 107], the pIC50 in test [1] is under 6.30; in the test on COV504 cells (Homo sapiens), 6.30 to 7.00; on CDK9/Cyclin T1 complex, under 6.30; in the test on HCC70 cells (Homo sapiens) it was 6.30 to 7.00; with COV318 cells (Homo sapiens), 6.30 to 7.00; against CDK2/Cyclin E1 complex it was under 6.30. The negative logarithm of the IC50 (pIC50) was over 7.52 in test [2] and 6.30 to 7.00 in the test on MB453 cells (Homo sapiens).
As to `Cc1nc(-c2ccc3c(-c4nc(N[C@H]5CC[C@H](C)NC5)ncc4C(F)(F)F)n[nH]c3n2)no1` [Compound 167, 4-[6-(5-methyl-1,2,4-oxadiazol-3-yl)-1H-pyrazolo[3,4-b]pyridin-3-yl]-N-[(3S,6S)-6-methyl-3-piperidyl]-5-(trifluoromethyl)pyrimidin-2-amine], the pIC50 was under 6.30 in test [1]; over 7.00 in the test with COV504 cells (Homo sapiens); under 6.30 against CDK9/Cyclin T1 complex; over 7.00 with HCC70 cells (Homo sapiens); 6.30 to 7.00 in the test on COV318 cells (Homo sapiens); under 6.30 against CDK2/Cyclin E1 complex. Moreover, the pIC50 is over 7.52 in test [2] and 6.30 to 7.00 in the test with MB453 cells (Homo sapiens).
On to `Cc1nocc1-c1ccc2c(-c3nc(N[C@H]4CC[C@H](C)NC4)ncc3C(F)(F)F)c[nH]c2n1` [Compound 156, 4-[6-(3-methylisoxazol-4-yl)-1H-pyrrolo[2,3-b]pyridin-3-yl]-N-[(3S,6S)-6-methyl-3-piperidyl]-5-(trifluoromethyl)pyrimidin-2-amine], for which the pIC50 is under 6.30 in test [1]; 6.30 to 7.00 in the test on COV504 cells (Homo sapiens); under 6.30 at CDK9/Cyclin T1 complex; 6.00 to 6.30 in the test on HCC70 cells (Homo sapiens); under 6.00 in the test with COV318 cells (Homo sapiens); under 6.30 against CDK2/Cyclin E1 complex. The pIC50 in test [2] was over 7.52; in the test on MB453 cells (Homo sapiens) it was 6.30 to 7.00.
